This note sets out measurements from patent US12144864B2, “Tubulysins and protein-tubulysin conjugates” (Regeneron Pharmaceuticals, Inc., priority 2018, dated 2024).

A word on the IC50: it is the concentration that gives 50% inhibition.

Structures are written as SMILES. Like-named read-outs stand apart in the source and are kept apart here.

In one test the test system is C4-2 cells. Nature of the test: Cell-based killing assay of payloads (CellTiter-Glo), C4-2 cells. Also noted: species or system human. Conditions: 5-day incubation; for IC50: Homo sapiens, C4-2, 120 h, average ± SD where replicates; for C4-2 % Kill: at maximum concentration tested (100 − % viable cells). As for the experimental part: (§1) To test the ability of the disclosed tubulysin payloads to kill human cell lines, an in vitro cytotoxicity assay was performed. In vitro cytotoxicity of the disclosed payloads, as well as reference compounds, were evaluated using the CellTiter-Glo Assay Kit (Promega, Cat #G7573), in which the quantity of ATP present is used to determine the number of viable cells in culture. For the assay, C4-2, HEK293, or T47D cells were seeded at 4000 cells/well on Nunclon white 96-well plates in complete growth medium (DME high glucose:Ham's F12 at 4:1, 10% FBS, 100 units/ml Penicillin, 100 ug/ml streptomycin, 53 ug/ml glutatmine, 10 ug/ml insulin, 220 ng/ml biotin, 12.5 pg/ml T3, 12.5 ug/ml Adenine, 4 ug/ml transferrin for C42 cells; DME high glucose, 10% FBS, 100 units/ml Penicillin, 100 ug/ml streptomycin, 53 ug/ml glutatmine for HEK293; RPMI, 10% FBS, 100 units/ml Penicillin, 100 ug/ml streptomycin, 53 ug/ml glutatmine, 10 ug/ml insulin, 10 mM HEPEs, 200 nM Sodium Pyruvate for T47D cells) and grown overnight at 37° C. in 5% CO2. For cell viability curves, 1:3 serially diluted payloads were added to the cells at final concentrations ranging from 100 nM to […], including a no treatment control group, and were then incubated for 5 days. After the 5-day incubation, cells were incubated at room temperature with 100 μL of CellTiter-Glo reagents for 10 minutes. Relative luminescence units (RLU) were determined on a Victor plate reader (PerkinElmer). The IC50 values were determined from a four-parameter logistic equation over a 10-point response curve (GraphPad Prism). All IC50 values are expressed in molar (M) concentration. The percent cell killing (% kill) at the maximum concentration tested was estimated from the following formula (100−% viable cells). Averages±standard deviation (SD) are included where replicate experiments were performed.
A general note: ATP-based viability assays read luminescence as a measure of living cells.

The test system of the next test is HCT15 cells. The test can be described thus: cells. Format: cell-based, human. The note with it: HCT15 cells; for HCT-15 + verapamil % Kill / HCT-15 % Kill: maximum % cell killing. As to the method:
as §1
In vitro cytotoxicity of the disclosed payloads as well as reference compounds were evaluated similarly as described above except using 1000 HCT15 cells, a colorectal carcinoma cell line, in growth medium (RPMI, 10% FBS, 100 units/ml Penicillin, 100 ug/ml streptomycin, 53 ug/ml glutatmine) with or without 5 ug/mL of Verapamil.

The next test has as its system HCT-15 cells. Nature of the test: Cytotoxicity in panel of MDR cell lines, HCT-15 (72 h and 144 h). It counts as cell-based, human. The note with it: for IC50: Homo sapiens. As to the method:
as §1
(§2) To further test the ability of the disclosed tubulysin payloads, a cytotoxicity assay was performed using a panel of multidrug resistant (MDR) cell lines. In vitro cytotoxicity of the disclosed payloads as well as reference compounds were similarly evaluated as described above except using HCT-15 cells, a colorectal carcinoma cell line; H69AR, a doxorubicin resistant MDR derivative of the small cell lung cancer carcinoma cell line NCI-H69; MES-SA/MX2, a mitoxantrone resistant MDR derivative of the uterine sarcoma cell line MES-SA; and HL60/MX2, a mitoxantrone resistant MDR derivative of the acute promyelocytic leukemia cell line HL60. In these assays, cytotoxicity was evaluated in normal growth media (RPMI, 10% FBS, 100 units/ml Penicillin, 100 ug/ml streptomycin, and 53 ug/ml glutatmine for HCT-15 and HL60/MX2; RPMI, 20% FBS, 100 units/ml Penicillin, 100 ug/ml streptomycin, and 53 ug/ml glutatmine for H69-AR; Waymouths's:McCoy's (1:1), 10% FBS, 100 units/ml Penicillin, 100 ug/ml streptomycin, and 53 ug/ml glutatmine for MES-SA/MX2) with 1000 cells per well following 72 h and 144 h incubation with payloads.

Another test deals with H69AR cells. The test can be described thus: Cytotoxicity in panel of MDR cell lines, H69AR (72 h and 144 h). Format: cell-based, human. Conditions: for IC50: Homo sapiens. As to the method:
as §1, §2

Setting [1] is: with 5 ug/mL Verapamil, read-out: HCT-15 + verapamil IC50.
Where [2] appears, read: Homo sapiens, HCT-15, without Verapamil, read-out: HCT-15 IC50.
[3] abbreviates: with 5 ug/mL Verapamil, read-out: HCT-15 + verapamil IC50 (value in brackets).
The mark [4] stands for this setting: Homo sapiens, HCT-15, without Verapamil, read-out: HCT-15 IC50 (value in brackets).

As for `CCCCCCON(C(=O)[C@@H](NC(=O)[C@H]1CCCCN1C)[C@@H](C)CC)[C@H](C[C@@H](OC(=O)NCCC)c1nc(C(=O)N[C@@H](Cc2ccc(O)cc2)C[C@H](C)C(=O)O)cs1)C(C)C` [VIc, (2S,4R)-5-(4-Hydroxyphenyl)-4-(2-((7R,9R)-9-isopropyl-10-((2S,3S)-3-methyl-2-((R)-1-methylpiperidine-2-carboxamido)pentanoyl)-5-oxo-6,11-dioxa-4,10-diazaheptadecan-7-yl)thiazole-4-carboxamido)-2-methylpentanoic acid], the figures for the concentration for half-maximal inhibition (IC50) in the test with C4-2 cells, in the test with HCT15 cells (setting [1]) and in the test on HCT15 cells (setting [2]) were 1.33 nM, 0.286 nM and 13.2 nM, respectively. In the test on C4-2 cells, the “C4-2 % Kill” value turned out to be 95.5 ± 1.8%. Moreover, the “HCT-15 + verapamil % Kill” value in the test with HCT15 cells (with 5 ug/mL Verapamil) worked out at 98.8%. The “HCT-15 % Kill” value in the test with HCT15 cells (without Verapamil) turned out to be 94%.

For the compound `CCCCCON(C(=O)[C@@H](NC(=O)[C@H]1CCCCN1C)[C@@H](C)CC)[C@H](C[C@@H](OC(C)=O)c1nc(C(=O)N[C@@H](Cc2ccc(O)cc2)CC(C)(C)C(=O)O)cs1)C(C)C` [X, (4S)-4-({2-[(1R,3R)-1-(Acetyloxy)-4-methyl-3-[(2S,3S)-3-methyl-2-{[(2R)-1-methylpiperidin-2-yl]formamido}-N-(pentyloxy)pentanamido]pentyl]-1,3-thiazol-4-yl}formamido)-5-(4-hydroxyphenyl)-2,2-dimethylpentanoic acid], the half-inhibitory concentration (IC50) was 0.06 nM with C4-2 cells, 0.116 nM in the test on HCT15 cells (setting [3]) and 0.097 nM with HCT15 cells (setting [4]).

As to `CCCCCCN(C(=O)[C@@H](NC(=O)[C@H]1CCCCN1C)[C@@H](C)CC)[C@H](C[C@@H](OC(C)=O)c1nc(C(=O)N[C@@H](Cc2ccc(O)c(N)c2)CC(C)(C)C(=O)O)cs1)C(C)C` [IVw, (S)-4-(2-((1R,3R)-1-Acetoxy-3-((2S,3S)—N-hexyl-3-methyl-2-((R)-1-methylpiperidine-2-carboxamido)pentanamido)-4-methylpentyl)thiazole-4-carboxamido)-5-(3-amino-4-hydroxyphenyl)-2,2-dimethylpentanoic acid], the results for the half-inhibitory concentration (IC50) with C4-2 cells, with HCT15 cells (setting [1]) and in the test on HCT15 cells (setting [2]) were above 100 nM, 4.49 nM and 9.73 nM, respectively. The “C4-2 % Kill” value in the test with C4-2 cells is on record as 27.9%. In addition, the “HCT-15 + verapamil % Kill” value with HCT15 cells (with 5 ug/mL Verapamil) turned out to be 98.3%. Also, in the test on HCT15 cells (without Verapamil), the “HCT-15 % Kill” value was 95.9%.

For `CC[C@H](C)[C@H](NC(=O)[C@H]1CCCCN1C)C(=O)N(CCCCc1cn(CCCC(=O)O)nn1)[C@H](C[C@@H](OC(C)=O)c1nc(C(=O)N[C@@H](Cc2ccc(N)cc2)CC(C)(C)C(=O)O)cs1)C(C)C` [IVn, (S)-4-(2-((1R,3R)-1-Acetoxy-3-((2S,3S)—N-(4-(1-(3-carboxypropyl)-1H-1,2,3-triazol-4-yl)butyl)-3-methyl-2-((R)-1-methylpiperidine-2-carboxamido)pentanamido)-4-methylpentyl)thiazole-4-carboxamido)-5-(4-aminophenyl)-2,2-dimethylpentanoic acid], the IC50 in the test on C4-2 cells is above 100 nM; with HCT15 cells (setting [1]) it was above 30 nM; in the test with HCT15 cells (setting [2]), above 30 nM. In addition, in the test with C4-2 cells, the “C4-2 % Kill” value stood at 30.2%. Further, in the test with HCT15 cells (with 5 ug/mL Verapamil), the “HCT-15 + verapamil % Kill” value is 72.4%. In addition, the “HCT-15 % Kill” value in the test with HCT15 cells (without Verapamil) was 30.9%.

With `CCCCCCN(C(=O)[C@@H](NC(=O)[C@H]1CCCCN1C)[C@@H](C)CC)[C@H](C[C@@H](OC(C)=O)c1nc(C(=O)N[C@@H](Cc2ccc(F)cc2)C[C@H](C)C(=O)O)cs1)C(C)C` [IVa, (2S,4R)-4-(2-((1R,3R)-1-Acetoxy-3-((2S,3S)—N-hexyl-3-methyl-2-((R)-1-methylpiperidine-2-carboxamido)pentanamido)-4-methylpentyl)thiazole-4-carboxamido)-5-(4-fluorophenyl)-2-methylpentanoic acid], the “HCT-15 % Kill 72 h” value in the test on HCT-15 cells (72 h incubation) is listed as 97.8%. In the test on HCT-15 cells (144 h incubation), the “HCT-15 % Kill 144 h” value came out at 99.6%. Besides, the IC50 was 0.166 nM in the test with HCT-15 cells (72 h incubation, read-out: HCT-15 IC50 72 h); 0.318 nM in the test with HCT-15 cells (144 h incubation, read-out: HCT-15 IC50 144 h); 0.0653 nM in the test with C4-2 cells; 0.749 nM with H69AR cells (72 h incubation, read-out: H69AR IC50 72 h); 1.38 nM with H69AR cells (144 h incubation, read-out: H69AR IC50 144 h). The “C4-2 % Kill” value in the test with C4-2 cells is recorded as 95.2%. Further, in the test with H69AR cells (72 h incubation), the “H69AR % Kill 72 h” value turned out to be 96.1%. Further, the “H69AR % Kill 144 h” value in the test on H69AR cells (144 h incubation) was determined as 99.3%.

For `C#CCCCON(C(=O)[C@@H](NC(=O)[C@H]1CCCCN1C)[C@@H](C)CC)[C@H](C[C@@H](OC(C)=O)c1nc(C(=O)N[C@@H](Cc2ccc(O)cc2)CC(C)(C)C(=O)O)cs1)C(C)C` [IX, (4S)-4-({2-[(1R,3R)-1-(Acetyloxy)-4-methyl-3-[(2S,3S)-3-methyl-2-{[(2R)-1-methylpiperidin-2-yl]formamido}-N-(pent-4-yn-1-yloxy)pentanamido]pentyl]-1,3-thiazol-4-yl}formamido)-5-(4-hydroxyphenyl)-2,2-dimethylpentanoic acid], the IC50 was found to be 0.054 nM with C4-2 cells, 0.162 nM with HCT15 cells (setting [3]) and 0.171 nM in the test with HCT15 cells (setting [4]).

As for `CCCCCCN(C(=O)[C@@H](NC(=O)[C@H]1CCCCN1C)[C@@H](C)CC)[C@H](C[C@@H](OC(C)=O)c1nc(C(=O)N[C@@H](Cc2ccc(N)cc2)CC(C)(C)C(=O)NN)cs1)C(C)C` [IVy, (1R,3R)-1-(4-((S)-1-(4-Aminophenyl)-5-hydrazinyl-4,4-dimethyl-5-oxopentan-2-ylcarbamoyl)thiazol-2-yl)-3-((2S,3S)—N-hexyl-3-methyl-2-((R)-1-methylpiperidine-2-carboxamido)pentanamido)-4-methylpentyl acetate], in the test with C4-2 cells, the 50% inhibitory concentration (IC50) turned out to be 1.82 nM and the “C4-2 % Kill” value amounted to 94.4%.

With `CCCCCCN(C(=O)[C@@H](NC(=O)[C@H]1CCCCN1C)[C@@H](C)CC)[C@H](C[C@@H](OC(C)=O)c1nc(C(=O)N[C@H](Cc2ccc(N)c(F)c2)CC(C)(C)C(=O)O)cs1)C(C)C` [IVvA, 4-({2-[(1R,3R)-1-(Acetyloxy)-3-[(2S,3S)—N-hexyl-3-methyl-2-{[(2R)-1-methylpiperidin-2-yl]formamido}pentanamido]-4-methylpentyl]-1,3-thiazol-4-yl}formamido)-5-(4-amino-3-fluorophenyl)-2,2-dimethylpentanoic acid], the half-maximal inhibitory concentration (IC50) was found to be 10.9 nM in the test with C4-2 cells, 1.97 nM in the test on HCT15 cells (setting [1]) and 5.27 nM in the test with HCT15 cells (setting [2]). Further, the “C4-2 % Kill” value with C4-2 cells came out at 96.7%. Also, in the test on HCT15 cells (with 5 ug/mL Verapamil), the “HCT-15 + verapamil % Kill” value is recorded as 97.1%. Also, in the test with HCT15 cells (without Verapamil), the “HCT-15 % Kill” value was found to be 99.2%.
